{
  "source": "PubChem BioAssay (NCI)",
  "assay_in_all_cases": "DTP human tumour cell line panel, 48 h",
  "key": {"[1]": {"system": "M14 melanoma"}, "[2]": {"system": "A549 NSCLC"}, "[3]": {"system": "SR leukemia"}, "[4]": {"system": "SK-MEL-5 melanoma"}, "[5]": {"system": "TK-10 renal"}, "[6]": {"system": "HS 578T breast"}, "[7]": {"system": "DU-145 prostate"}, "[8]": {"system": "RXF 393 renal"}, "[9]": {"system": "MOLT-4 leukemia"}, "[10]": {"system": "MDA-MB-435"}, "[11]": {"system": "SN12C renal"}, "[12]": {"system": "CCRF-CEM leukemia"}, "[13]": {"system": "OVCAR-3 ovarian"}, "[14]": {"system": "SNB-19 CNS"}, "[15]": {"system": "MDA-MB-231 breast"}, "[16]": {"system": "OVCAR-4 ovarian"}, "[17]": {"system": "UACC-257 melanoma"}, "[18]": {"system": "MALME-3M melanoma"}, "[19]": {"system": "ACHN renal"}, "[20]": {"system": "SK-OV-3 ovarian"}, "[21]": {"system": "OVCAR-5 ovarian"}, "[22]": {"system": "SK-MEL-28 melanoma"}, "[23]": {"system": "U251 CNS"}, "[24]": {"system": "SW-620 colon"}, "[25]": {"system": "HT29 colon"}, "[26]": {"system": "HCT-116 colon"}, "[27]": {"system": "BT-549 breast"}, "[28]": {"system": "SF-295 CNS"}, "[29]": {"system": "SF-539 CNS"}, "[30]": {"system": "786-0 renal"}, "[31]": {"system": "COLO 205 colon"}, "[32]": {"system": "HOP-92 NSCLC"}, "[33]": {"system": "NCI-H23 lung"}, "[34]": {"system": "UACC-62 melanoma"}, "[35]": {"system": "IGROV1 ovarian"}, "[36]": {"system": "SNB-75 CNS"}, "[37]": {"system": "SF-268 CNS"}, "[38]": {"system": "NCI/ADR-RES ovarian"}, "[39]": {"system": "HCC-2998 colon"}, "[40]": {"system": "SK-MEL-2 melanoma"}, "[41]": {"system": "HOP-62 NSCLC"}, "[42]": {"system": "LOX IMVI melanoma"}, "[43]": {"system": "HL-60(TB) leukemia"}, "[44]": {"system": "K-562 leukemia"}, "[45]": {"system": "NCI-H226 lung"}, "[46]": {"system": "OVCAR-8 ovarian"}},
  "note": "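All cell lines were grown in 96-well plates and treated with compound for 48 hours. Abbreviation: GI50, concentration required for 50% inhibition of growth. TGI is the concentration that stops growth completely.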",
  "data": [
    {"smiles": "O=C(Nc1ccc(OCc2nnc(-c3ccc(Cl)cc3)o2)c(F)c1)c1ccc(Cl)c(C(F)(F)F)c1", "values": [
      {"measurement": "GI50", "setting": "[1]", "value": "> 50", "unit": "µM"},
      {"measurement": "TGI", "setting": "[1]", "value": "> 50", "unit": "µM"},
      {"measurement": "GI50", "setting": "[2]", "value": "> 50", "unit": "µM"},
      {"measurement": "TGI", "setting": "[2]", "value": "> 50", "unit": "µM"},
      {"measurement": "GI50", "setting": "[3]", "value": "> 50", "unit": "µM"},
      {"measurement": "TGI", "setting": "[3]", "value": "> 50", "unit": "µM"},
      {"measurement": "GI50", "setting": "[4]", "value": "> 50", "unit": "µM"},
      {"measurement": "TGI", "setting": "[4]", "value": "> 50", "unit": "µM"},
      {"measurement": "GI50", "setting": "[5]", "value": "> 50", "unit": "µM"},
      {"measurement": "TGI", "setting": "[5]", "value": "> 50", "unit": "µM"},
      {"measurement": "GI50", "setting": "[6]", "value": "> 50", "unit": "µM"},
      {"measurement": "TGI", "setting": "[6]", "value": "> 50", "unit": "µM"},
      {"measurement": "GI50", "setting": "[7]", "value": "> 50", "unit": "µM"},
      {"measurement": "TGI", "setting": "[7]", "value": "> 50", "unit": "µM"},
      {"measurement": "GI50", "setting": "[8]", "value": "> 50", "unit": "µM"},
      {"measurement": "TGI", "setting": "[8]", "value": "> 50", "unit": "µM"},
      {"measurement": "GI50", "setting": "[9]", "value": "> 50", "unit": "µM"},
      {"measurement": "TGI", "setting": "[9]", "value": "> 50", "unit": "µM"},
      {"measurement": "GI50", "setting": "[10]", "value": "> 50", "unit": "µM"},
      {"measurement": "TGI", "setting": "[10]", "value": "> 50", "unit": "µM"},
      {"measurement": "GI50", "setting": "[11]", "value": "> 50", "unit": "µM"},
      {"measurement": "TGI", "setting": "[11]", "value": "> 50", "unit": "µM"},
      {"measurement": "GI50", "setting": "[12]", "value": "> 50", "unit": "µM"},
      {"measurement": "TGI", "setting": "[12]", "value": "> 50", "unit": "µM"},
      {"measurement": "GI50", "setting": "[13]", "value": "> 50", "unit": "µM"},
      {"measurement": "TGI", "setting": "[13]", "value": "> 50", "unit": "µM"},
      {"measurement": "GI50", "setting": "[14]", "value": "> 50", "unit": "µM"},
      {"measurement": "TGI", "setting": "[14]", "value": "> 50", "unit": "µM"},
      {"measurement": "GI50", "setting": "[15]", "value": "> 50", "unit": "µM"},
      {"measurement": "TGI", "setting": "[15]", "value": "> 50", "unit": "µM"},
      {"measurement": "GI50", "setting": "[16]", "value": "> 50", "unit": "µM"},
      {"measurement": "TGI", "setting": "[16]", "value": "> 50", "unit": "µM"},
      {"measurement": "GI50", "setting": "[17]", "value": "> 50", "unit": "µM"},
      {"measurement": "TGI", "setting": "[17]", "value": "> 50", "unit": "µM"},
      {"measurement": "GI50", "setting": "[18]", "value": "> 50", "unit": "µM"},
      {"measurement": "TGI", "setting": "[18]", "value": "> 50", "unit": "µM"},
      {"measurement": "GI50", "setting": "[19]", "value": "> 50", "unit": "µM"},
      {"measurement": "TGI", "setting": "[19]", "value": "> 50", "unit": "µM"},
      {"measurement": "GI50", "setting": "[20]", "value": "> 50", "unit": "µM"},
      {"measurement": "TGI", "setting": "[20]", "value": "> 50", "unit": "µM"},
      {"measurement": "GI50", "setting": "[21]", "value": "> 50", "unit": "µM"},
      {"measurement": "TGI", "setting": "[21]", "value": "> 50", "unit": "µM"},
      {"measurement": "GI50", "setting": "[22]", "value": "> 50", "unit": "µM"},
      {"measurement": "TGI", "setting": "[22]", "value": "> 50", "unit": "µM"},
      {"measurement": "GI50", "setting": "[23]", "value": "> 50", "unit": "µM"},
      {"measurement": "TGI", "setting": "[23]", "value": "> 50", "unit": "µM"},
      {"measurement": "GI50", "setting": "[24]", "value": "> 50", "unit": "µM"},
      {"measurement": "TGI", "setting": "[24]", "value": "> 50", "unit": "µM"},
      {"measurement": "GI50", "setting": "[25]", "value": "> 50", "unit": "µM"},
      {"measurement": "TGI", "setting": "[25]", "value": "> 50", "unit": "µM"},
      {"measurement": "GI50", "setting": "[26]", "value": "> 50", "unit": "µM"},
      {"measurement": "TGI", "setting": "[26]", "value": "> 50", "unit": "µM"},
      {"measurement": "GI50", "setting": "[27]", "value": "> 50", "unit": "µM"},
      {"measurement": "TGI", "setting": "[27]", "value": "> 50", "unit": "µM"},
      {"measurement": "GI50", "setting": "[28]", "value": "> 50", "unit": "µM"},
      {"measurement": "TGI", "setting": "[28]", "value": "> 50", "unit": "µM"},
      {"measurement": "GI50", "setting": "[29]", "value": "> 50", "unit": "µM"},
      {"measurement": "TGI", "setting": "[29]", "value": "> 50", "unit": "µM"},
      {"measurement": "GI50", "setting": "[30]", "value": "> 50", "unit": "µM"},
      {"measurement": "TGI", "setting": "[30]", "value": "> 50", "unit": "µM"},
      {"measurement": "GI50", "setting": "[31]", "value": "> 50", "unit": "µM"},
      {"measurement": "TGI", "setting": "[31]", "value": "> 50", "unit": "µM"},
      {"measurement": "GI50", "setting": "[32]", "value": "> 50", "unit": "µM"},
      {"measurement": "TGI", "setting": "[32]", "value": "> 50", "unit": "µM"},
      {"measurement": "GI50", "setting": "[33]", "value": "> 50", "unit": "µM"},
      {"measurement": "TGI", "setting": "[33]", "value": "> 50", "unit": "µM"},
      {"measurement": "GI50", "setting": "[34]", "value": "> 50", "unit": "µM"},
      {"measurement": "TGI", "setting": "[34]", "value": "> 50", "unit": "µM"},
      {"measurement": "GI50", "setting": "[35]", "value": "> 50", "unit": "µM"},
      {"measurement": "TGI", "setting": "[35]", "value": "> 50", "unit": "µM"},
      {"measurement": "GI50", "setting": "[36]", "value": "> 50", "unit": "µM"},
      {"measurement": "TGI", "setting": "[36]", "value": "> 50", "unit": "µM"},
      {"measurement": "GI50", "setting": "[37]", "value": "> 50", "unit": "µM"},
      {"measurement": "TGI", "setting": "[37]", "value": "> 50", "unit": "µM"},
      {"measurement": "GI50", "setting": "[38]", "value": "> 50", "unit": "µM"},
      {"measurement": "TGI", "setting": "[38]", "value": "> 50", "unit": "µM"},
      {"measurement": "GI50", "setting": "[39]", "value": "> 50", "unit": "µM"},
      {"measurement": "TGI", "setting": "[39]", "value": "> 50", "unit": "µM"},
      {"measurement": "GI50", "setting": "[40]", "value": "> 50", "unit": "µM"},
      {"measurement": "TGI", "setting": "[40]", "value": "> 50", "unit": "µM"},
      {"measurement": "GI50", "setting": "[41]", "value": "> 50", "unit": "µM"},
      {"measurement": "TGI", "setting": "[41]", "value": "> 50", "unit": "µM"},
      {"measurement": "GI50", "setting": "[42]", "value": "> 50", "unit": "µM"},
      {"measurement": "TGI", "setting": "[42]", "value": "> 50", "unit": "µM"},
      {"measurement": "GI50", "setting": "[43]", "value": "> 50", "unit": "µM"},
      {"measurement": "TGI", "setting": "[43]", "value": "> 50", "unit": "µM"},
      {"measurement": "GI50", "setting": "[44]", "value": "> 50", "unit": "µM"},
      {"measurement": "TGI", "setting": "[44]", "value": "> 50", "unit": "µM"},
      {"measurement": "GI50", "setting": "[45]", "value": "> 50", "unit": "µM"},
      {"measurement": "TGI", "setting": "[45]", "value": "> 50", "unit": "µM"},
      {"measurement": "GI50", "setting": "[46]", "value": "> 50", "unit": "µM"},
      {"measurement": "TGI", "setting": "[46]", "value": "> 50", "unit": "µM"}
    ]}
  ]
}
